{"source": "patent US20250090695A1", "about": "“IMMUNOSTIMULANT-CYTOTOXIC CONJUGATE COMPOSITION AND METHODS FOR CANCER TREATMENT” (The Research Foundation for the State University of New York, priority 2022, published 2025)", "key": {"[1]": {"experiment": "Biodistribution in a xenograft model of prostate cancer with PC-3 PiP (PSMA(+)) and PC-3 flu (PSMA(−)) tumors", "type": "in vivo, Male NCr nude mice", "conditions": "PC-3 PiP/PC-3 flu xenograft, NCr nude mice", "protocol": "Biodistribution analyses of ^177Lu-RIMS-1 and ^177Lu-PSMA-617 were carried out in a xenograft model of prostate cancer with a PC-3 PiP tumor (PSMA(+)) on the left shoulder of a murine subject, and a PC-3 flu tumor (PSMA(−)) on the right should of a murine subject. Murine subjects examined were Male NCr nude mice."}, "[2]": {"target": "T1, PSMA (Homo sapiens, UniProt Q04609)", "T1 construct": "This has been leveraged in clinical trials using the radiotherapeutic 117Lu-PSMA-617; host or cells: tumours of prostate cancer patients", "T1 sequence (Q04609 whole entry)": "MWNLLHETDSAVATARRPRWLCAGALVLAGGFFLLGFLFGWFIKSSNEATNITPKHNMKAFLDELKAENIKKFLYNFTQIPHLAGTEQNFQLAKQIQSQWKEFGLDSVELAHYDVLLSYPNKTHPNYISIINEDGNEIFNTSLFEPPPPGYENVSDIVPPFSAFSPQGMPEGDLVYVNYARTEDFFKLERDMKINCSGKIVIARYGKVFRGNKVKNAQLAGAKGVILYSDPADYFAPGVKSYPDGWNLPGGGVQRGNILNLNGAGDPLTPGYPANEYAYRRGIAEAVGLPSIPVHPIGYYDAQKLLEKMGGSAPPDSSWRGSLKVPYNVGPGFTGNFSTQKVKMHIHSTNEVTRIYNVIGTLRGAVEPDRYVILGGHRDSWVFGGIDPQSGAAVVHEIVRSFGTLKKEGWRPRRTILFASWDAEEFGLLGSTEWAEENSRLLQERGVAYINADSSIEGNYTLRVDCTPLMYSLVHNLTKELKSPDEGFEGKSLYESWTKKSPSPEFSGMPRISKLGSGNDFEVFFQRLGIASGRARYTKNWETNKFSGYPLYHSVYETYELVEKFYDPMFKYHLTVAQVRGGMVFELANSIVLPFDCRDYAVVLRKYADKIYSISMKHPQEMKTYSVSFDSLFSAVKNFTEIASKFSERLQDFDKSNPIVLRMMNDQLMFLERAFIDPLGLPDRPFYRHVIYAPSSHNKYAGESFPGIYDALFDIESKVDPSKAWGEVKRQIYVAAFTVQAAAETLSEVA", "conditions": "clinical trials; cited from earlier work"}, "[3]": {"experiment": "Biodistribution in a syngeneic model of prostate cancer with a RM1-PGLS tumor", "conditions": "C57BL/6J mice"}}}
{"molecule": "O=C([O-])CN1CCN(CC(=O)[O-])CCN(CC(=O)NCC2CCC(C(=O)N[C@@H](Cc3ccc4ccccc4c3)C(=O)NCCCC[C@H](NC(=O)N[C@@H](CCC(=O)O)C(=O)O)C(=O)O)CC2)CCN(CC(=O)[O-])CC1.[177Lu+3]", "note": "(stereo partly drawn) [^177Lu-PSMA-617]", "values": [{"measurement": "Biodistribution Blood (% ID/g ± SD)", "setting": "[1]; 2 h", "result": "0.95 ± 0.53", "unit": "% ID/g"}, {"measurement": "Biodistribution Bone (% ID/g ± SD)", "setting": "[1]; 2 h", "result": "0.21 ± 0.11", "unit": "% ID/g"}, {"measurement": "Biodistribution Heart (% ID/g ± SD)", "setting": "[1]; 2 h", "result": "0.27 ± 0.12", "unit": "% ID/g"}, {"measurement": "Biodistribution Kidney (% ID/g ± SD)", "setting": "[1]; 2 h", "result": "5.12 ± 1.95", "unit": "% ID/g"}, {"measurement": "Biodistribution Liver (% ID/g ± SD)", "setting": "[1]; 2 h", "result": "0.29 ± 0.14", "unit": "% ID/g"}, {"measurement": "Biodistribution Muscle (% ID/g ± SD)", "setting": "[1]; 2 h", "result": "0.14 ± 0.05", "unit": "% ID/g"}, {"measurement": "Biodistribution PSMA (+) (PC3-PIP) tumor (% ID/g ± SD)", "setting": "[1]; 2 h", "result": "11.78 ± 1.46", "unit": "% ID/g"}, {"measurement": "Biodistribution PSMA (−) (PC3-Flu) tumor (% ID/g ± SD)", "setting": "[1]; 2 h", "result": "0.48 ± 0.2", "unit": "% ID/g"}, {"measurement": "Biodistribution Sm Int (% ID/g ± SD)", "setting": "[1]; 2 h", "result": "0.28 ± 0.15", "unit": "% ID/g"}, {"measurement": "Biodistribution Spleen (% ID/g ± SD)", "setting": "[1]; 2 h", "result": ".027 ± 0.14 % ID/g"}, {"measurement": "Biodistribution Blood (% ID/g ± SD)", "setting": "[1]; 24 h", "result": "0.21 ± 0.13", "unit": "% ID/g"}, {"measurement": "Biodistribution Bone (% ID/g ± SD)", "setting": "[1]; 24 h", "result": "0.07 ± 0.010", "unit": "% ID/g"}, {"measurement": "Biodistribution Heart (% ID/g ± SD)", "setting": "[1]; 24 h", "result": "0.09 ± 0.05", "unit": "% ID/g"}, {"measurement": "Biodistribution Kidney (% ID/g ± SD)", "setting": "[1]; 24 h", "result": "0.57 ± 0.29", "unit": "% ID/g"}, {"measurement": "Biodistribution Liver (% ID/g ± SD)", "setting": "[1]; 24 h", "result": "0.08 ± 0.040", "unit": "% ID/g"}, {"measurement": "Biodistribution Muscle (% ID/g ± SD)", "setting": "[1]; 24 h", "result": "0.04 ± 0.010", "unit": "% ID/g"}, {"measurement": "Biodistribution PSMA (+) (PC3-PIP) tumor (% ID/g ± SD)", "setting": "[1]; 24 h", "result": "8.24 ± 3.22", "unit": "% ID/g"}, {"measurement": "Biodistribution PSMA (−) (PC3-Flu) tumor (% ID/g ± SD)", "setting": "[1]; 24 h", "result": "0.18 ± 0.13", "unit": "% ID/g"}, {"measurement": "Biodistribution Sm Int (% ID/g ± SD)", "setting": "[1]; 24 h", "result": "0.06 ± 0.020", "unit": "% ID/g"}, {"measurement": "Biodistribution Spleen (% ID/g ± SD)", "setting": "[1]; 24 h", "result": "0.08 ± 0.040", "unit": "% ID/g"}, {"measurement": "Biodistribution Blood (% ID/g ± SD)", "setting": "[1]; 72 h", "result": "0.03 ± 0.01", "unit": "% ID/g"}, {"measurement": "Biodistribution Bone (% ID/g ± SD)", "setting": "[1]; 72 h", "result": "0.05 ± 0.01", "unit": "% ID/g"}, {"measurement": "Biodistribution Heart (% ID/g ± SD)", "setting": "[1]; 72 h", "result": "0.03 ± 0.01", "unit": "% ID/g"}, {"measurement": "Biodistribution Kidney (% ID/g ± SD)", "setting": "[1]; 72 h", "result": "0.08 ± 0.05", "unit": "% ID/g"}, {"measurement": "Biodistribution Liver (% ID/g ± SD)", "setting": "[1]; 72 h", "result": "0.03 ± 0.01", "unit": "% ID/g"}, {"measurement": "Biodistribution Muscle (% ID/g ± SD)", "setting": "[1]; 72 h", "result": "0.02 ± 0.01", "unit": "% ID/g"}, {"measurement": "Biodistribution PSMA (+) (PC3-PIP) tumor (% ID/g ± SD)", "setting": "[1]; 72 h", "result": "3.65 ± 0.59", "unit": "% ID/g"}, {"measurement": "Biodistribution PSMA (−) (PC3-Flu) tumor (% ID/g ± SD)", "setting": "[1]; 72 h", "result": "0.02 ± 0.01", "unit": "% ID/g"}, {"measurement": "Biodistribution Sm Int (% ID/g ± SD)", "setting": "[1]; 72 h", "result": "0.03 ± 0.01", "unit": "% ID/g"}, {"measurement": "Biodistribution Spleen (% ID/g ± SD)", "setting": "[1]; 72 h", "result": "0.04 ± 0.01", "unit": "% ID/g"}, {"measurement": "Non-responders among patients", "setting": "[2]", "result": 30, "unit": "%"}, {"measurement": "Biodistribution Blood (% ID/g ± SD)", "setting": "[3]; 2 h", "result": "0.03 ± 0.02", "unit": "% ID/g"}, {"measurement": "Biodistribution Bone (% ID/g ± SD)", "setting": "[3]; 2 h", "result": "0.05 ± 0.05", "unit": "% ID/g"}, {"measurement": "Biodistribution Heart (% ID/g ± SD)", "setting": "[3]; 2 h", "result": "0.03 ± 0.01", "unit": "% ID/g"}, {"measurement": "Biodistribution Kidney (% ID/g ± SD)", "setting": "[3]; 2 h", "result": "1.39 ± 0.48", "unit": "% ID/g"}, {"measurement": "Biodistribution Liver (% ID/g ± SD)", "setting": "[3]; 2 h", "result": "0.17 ± 0.12", "unit": "% ID/g"}, {"measurement": "Biodistribution Muscle (% ID/g ± SD)", "setting": "[3]; 2 h", "result": "0.05 ± 0.05", "unit": "% ID/g"}, {"measurement": "Biodistribution RM1-PGLS tumor (% ID/g ± SD)", "setting": "[3]; 2 h", "result": "0.80 ± 0.18", "unit": "% ID/g"}, {"measurement": "Biodistribution Sm Int (% ID/g ± SD)", "setting": "[3]; 2 h", "result": "0.03 ± 0.01", "unit": "% ID/g"}, {"measurement": "Biodistribution Spleen (% ID/g ± SD)", "setting": "[3]; 2 h", "result": "0.08 ± 0.03", "unit": "% ID/g"}, {"measurement": "Biodistribution Blood (% ID/g ± SD)", "setting": "[3]; 24 h", "result": "0.00 ± 0.00", "unit": "% ID/g"}, {"measurement": "Biodistribution Bone (% ID/g ± SD)", "setting": "[3]; 24 h", "result": "0.01 ± 0.01", "unit": "% ID/g"}, {"measurement": "Biodistribution Heart (% ID/g ± SD)", "setting": "[3]; 24 h", "result": "0.01 ± 0.00", "unit": "% ID/g"}, {"measurement": "Biodistribution Kidney (% ID/g ± SD)", "setting": "[3]; 24 h", "result": "0.09 ± 0.07", "unit": "% ID/g"}, {"measurement": "Biodistribution Liver (% ID/g ± SD)", "setting": "[3]; 24 h", "result": "0.02 ± 0.01", "unit": "% ID/g"}, {"measurement": "Biodistribution Muscle (% ID/g ± SD)", "setting": "[3]; 24 h", "result": "0.01 ± 0.01", "unit": "% ID/g"}, {"measurement": "Biodistribution RM1-PGLS tumor (% ID/g ± SD)", "setting": "[3]; 24 h", "result": "0.25 ± 0.09", "unit": "% ID/g"}, {"measurement": "Biodistribution Sm Int (% ID/g ± SD)", "setting": "[3]; 24 h", "result": "0.01 ± 0.01", "unit": "% ID/g"}, {"measurement": "Biodistribution Spleen (% ID/g ± SD)", "setting": "[3]; 24 h", "result": "0.02 ± 0.01", "unit": "% ID/g"}, {"measurement": "Biodistribution Blood (% ID/g ± SD)", "setting": "[3]; 72 h", "result": "0.01 ± 0.01", "unit": "% ID/g"}, {"measurement": "Biodistribution Bone (% ID/g ± SD)", "setting": "[3]; 72 h", "result": "0.01 ± 0.01", "unit": "% ID/g"}]}
